Series [1] has as its system Phelipanche aegyptiaca seeds. Nature of the series: Germination-inducing activity on parasitic seeds. The series is classed as in vivo. Particulars: for Fold lower potency than rac-GR24 (germination): compared with rac-GR24; for Concentration at which high germination activity was shown: high activity only at this concentration, germination normalized to rac-GR24 0.1 μM. As for the experimental part: Seeds of Phelipanche aegyptiaca were collected from field-grown tomato in the West Galilee region of Israel. The seeds were stored in glass vials in the dark at room temperature until their use in germination tests. For the preparation of test solutions, the compound to be tested was weighed out very accurately, dissolved in acetone at 10^–2 M and then diluted with sterile distilled water to the desired concentrations. All solutions were prepared just before use. Seeds were surface-sterilized and preconditioned as described by [Bhattacharya et al. (2009)]. Briefly, after exposure for 5 min to 50% (v/v) aqueous solutions of commercial bleach (2% hypochlorite), seeds were rinsed with sterile distilled water. For preconditioning, seeds were placed on glass fibre filter discs using a sterile toothpick (approximately 50 seeds per disc); the glass fibre discs were placed on two filter paper discs, wetted with sterile distilled water, and incubated at 25 °C in the dark for 6 d. The preconditioned seeds were then allowed to dry completely in a laminar flow cabinet, after which they were treated with each compound at five different concentrations: 10^–5 M, 10^–6 M, 10^–7 M, 10^–8 M, and 10^–9 M. Their germination rate was evaluated under a stereomicroscope 7 d after the beginning of the treatment. For each concentration, at least 250 seeds were scored; synthetic SL rac-GR24 was included as a positive control across the same range of concentrations, while a solution of 0.001% acetone in sterile distilled water was included as a negative control. Seeds were scored as germinated if the radicle protruded through the seed coat 1 week after treatment. Germination values were normalized to those of rac-GR24 at 10^–7 M.
Fig. 3. Germination-inducing activity on Phelipanche aegyptiaca seeds of rac-1–9 and of strigol, ST23b, EGO10, and EDOT at different concentrations, compared to rac-GR24 0.1 μM as a positive control and to acetone as a negative control. […] The x-axis indicates the range of concentrations. Data are means (±SD) of n>250 seeds. Confidence intervals at 95% are used to express errors of the means. The data for rac-1–9 are indicated by ‘D-lactams’.

The nature of series [2]: Chemical stability in aqueous solutions, degradation followed by HPLC. The series is classed as physicochemical. As for the experimental part:
The compounds were first dissolved in methanol (30%) or acetonitrile (50%) and then diluted to the final concentrations with water. The time-course of degradation was monitored by HPLC using an Agilent Technologies HPLC chromatograph 1200 Series equipped with a photo-diode array (PDA) detector, a binary-gradient high-pressure pump, and an automatic sampler. The column used was a LiChroCART® 125-4 LiChrospher® 100 RP-18 (5 μm, Merck Millipore) maintained at 25 °C. The solvents were (A) water + 0.1% formic acid and (B) acetonitrile, and the flow rate was 0.8 ml min^–1. The initial mobile phase, 95% A / 5% B, was held for 3 min and then ramped linearly to 100% B at 23 min and held for 5 min before resetting to the original conditions. The sample injection volume was 10 μl. PDA detection was by absorbance in the 200–600-nm wavelength range. Peak detection was at the optimum wavelength (254 nm) and peak areas were used for quantification. Initial and subsequent measurements of peak area attributable to the tested compound were used to fit exponential half-life curves and to calculate first-order rate constants. Stability data allowed for calculation of the time in hours for half of the tested compound to be hydrolysed (t1/2).
Natural and synthetic SLs are rather sensitive to hydrolysis at pH 7 and are readily decomposed through the cleavage of the D-ring at pH 9.38 ([Vurro et al., 2016]). Therefore, differences in activity among SL analogues may be attributed to their instability in the aqueous medium. In order to address this point, the stability in aqueous solutions of the newly synthesized SL-D-lactams was tested, and compared to the (+)-GR24 standard ([Kannan and Zwanenburg, 2014]; [Halouzka et al., 2018]). Two different conditions were considered, a 30% solution of MeOH in water and a 1:1 solution of acetonitrile in water. As expected, stability in MeOH was highly compromised for all compounds, but to a greater extent for analogues showing both the Michael acceptor function (enol ether bridge) and an unprotected N in the D-lactam ring, as for rac-3, rac-4, rac-5, and rac-7 (Table 1): after a few hours 50% of the compounds were degraded. This was not surprising from a chemical point of view, as the functional group in SL-D-lactams is an aminal, which is more prone to hydrolysis than the acetal of the natural SL skeleton. […] For rac-5, the NH compound in the EGO10 family, the half-life dropped to 2 h.

For series [3], the target named is T1, AtD14 fused to firefly luciferase (D14::LUC) (Arabidopsis thaliana, UniProt Q9SQR3).
T1 construct: a pDONOR207 carrying the D14 promoter fused to the D14 CDS; expressed in transfected cells
T1 sequence (Q9SQR3 1-267): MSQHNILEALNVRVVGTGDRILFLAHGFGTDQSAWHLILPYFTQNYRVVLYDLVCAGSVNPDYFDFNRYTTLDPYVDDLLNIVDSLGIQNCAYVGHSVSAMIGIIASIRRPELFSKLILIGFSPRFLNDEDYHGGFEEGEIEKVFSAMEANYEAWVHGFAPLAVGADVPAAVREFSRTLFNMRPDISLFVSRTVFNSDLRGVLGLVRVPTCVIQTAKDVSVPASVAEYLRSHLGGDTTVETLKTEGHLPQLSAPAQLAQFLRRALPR
The experiment in a line: Luminometer (luciferase) assay: D14::LUC degradation in transgenic Arabidopsis seedlings. The note with it: for Activity in the luciferase assay at 1 μM: weaker than (+)-GR24; for D14 degradation in the luciferase assay: 0.01–100 μM range, racemic mixtures. The series is classed as in vivo. As for the experimental part: A binary D14p::D14::LUC vector was obtained by LR-recombination (Invitrogen) of a pDONOR207 carrying the D14 promoter fused to the D14 CDS ([Chevalier et al., 2014]) in pGWB435 ([Nakagawa et al., 2007]). Transgenic D14::D14::LUC Arabidopsis plants were generated by agroinfiltration of Col-0 plants using the floral dip method ([Clough and Bent, 1998]). Seeds were surface-sterilized with an 8% aqueous solution of commercial bleach in distilled water for 5 min and rinsed five times with sterile distilled water. Sterile seeds were plated on MS medium (pH 5.8) ([Murashige and Skoog, 1962]) without sucrose solidified with 1.2% Agar, and kept at 4 °C for 3 d (stratification). Seeds were then incubated for 7 d in a growth chamber at 25 °C and a photoperiod of 16 h light/8 h dark. SL analogues and mimics (Figs 1, 2) were accurately weighed and dissolved in acetone at 10^–2 M. Five different concentrations (10^–4 M, 10^–5 M, 10^–6 M, 10^–7 M, 10^–8 M) were prepared by 1:10 serial dilutions in liquid MS medium, together with blank controls containing corresponding water and acetone volumes in the medium. D-Luciferin (potassium salt) stock was prepared at 25 mg ml^–1 in DMSO, aliquoted and stored at –80 °C until use; all other solutions were prepared just before the assay. Using tweezers, 7-d-old Arabidopsis seedlings were placed in a 96-well microtiter plate with their cotyledons facing up (one seedling per well, in 170 µl of liquid MS medium), and 15 µl of luciferin (0.125 mg ml^–1, diluted 1:200 in MS from stock) was added to each well, corresponding to 1.875 µg. The plate was covered with a transparent film with a hole poked above each well to allow for gas exchange. Measurements were taken every 15 min in a multimode reader (LB942 Tristar2 S, Berthold Technologies) for the following 24 h; the signal was allowed to stabilize for 2–3 h in the light before treatments were started by adding 15 µl per well of the different SLs in MS medium, thus reaching a final volume in each well of 200 µl and 9.4 µg ml^– of luciferin. Appropriate blank controls were added as well. Each treatment was applied to a minimum of 16 wells (seedlings), each of which was measured individually over time. The percentage efficacy of each compound molecule was calculated 6 h after treatment as a function of the decrease in D14::LUC-emitted luminescence with respect to (+)-GR24 1 µM (i.e. GR24^5DS), assuming that the latter, minus the drift of the corresponding blank control, had 100% efficacy. For calibration purposes, SL analogues that had already been characterized, namely (±)-ST23b, (±)-EGO10, and (±)-EDOT ([Prandi et al., 2011]), were tested across the same concentration range, along with (±)-strigol (Chiralix, NL). The half maximal-effective concentration (EC50) for (+)-GR24 was calculated by linear regression fitting of the data (n=5, with at least three individual seedlings and values being pooled for each replicate) at the different concentrations, minus the values for acetone-treated samples (negative controls) and normalized in relation to (+)-GR24 0.01 μM, which was set to 0%. Confidence intervals at 95% were used to express errors of the means.
D14 is a target for proteasome-dependent destruction upon interaction with its ligand(s), which explains why fluorescence of D14::GFP fusion proteins is quenched upon SL treatment in transgenic Arabidopsis ([Chevalier et al., 2014]). We exploited this molecular network to implement a quantitative activity assay that inversely correlated luminescence to perception of SL-related molecules in transgenic Arabidopsis expressing D14::LUC under the control of the D14 endogenous promoter. […] We then used the assay to test various SLs in the same range, namely strigol as an example of natural SLs; ST23b, EGO10, and EDOT (Fig. 1, all used as rac mixtures) as examples of active SL analogues; and the new set of SL-D-lactams rac-1–9 (Fig. 2).
Fig. 4. Luciferase assay. […]

Setting [4] is: aqueous acetonitrile solution in HPLC vials, pH 6.7, 1:1 acetonitrile:water, 21 °C, pH 6.7, extrapolated from plots of peak area versus time, read-out: Half-life (t1/2, h) ACN:Water, 1:1 (converted).
Where [5] appears, read: aqueous methanol solution in HPLC vials, pH 6.7, 30% MeOH in water, 21 °C, pH 6.7, extrapolated from plots of peak area versus time, read-out: Half-life (t1/2, h) 30% MeOH (converted).
The mark [6] stands for this setting: GraphPad fit, normalized with low acetone control.

The structures appear in SMILES notation. Where two headings read alike, the source gives them in different places.

On to `CC1=C[C@H](O/C=C2/C(=O)O[C@@H]3c4ccccc4C[C@H]23)N(C(=O)OC(C)(C)C)C1=O` (racemic) [rac-1], for which, in series [1], the “Fold lower potency than rac-GR24 (germination)” value is ~ 100 fold and the “Concentration at which high germination activity was shown” value was 10 µM. The half-life at 200 μg ml^–1 in series [2] (setting [4]) was 720 h. The half-life at 200 μg ml^–1 in series [2] (setting [5]) is 110 h.

With `CC1=C[C@H](O/C=C2/C(=O)O[C@H]3c4ccccc4C[C@@H]23)N(C(=O)OC(C)(C)C)C1=O` (racemic) [rac-2], in series [1] (tested 10^-9 to 10^-5 M), the “Concentration at which some germination activity could still be detected” value turned out to be 1 µM. Also, the half-life at 200 μg ml^–1 in series [2] (setting [4]) was 140 h; in series [2] (setting [5]), 21 h.

`CC1=C[C@H](O/C=C2\Cc3c(n(C)c4ccccc34)C2=O)NC1=O` (racemic) [rac-5]: the half-life at 200 μg ml^–1 in series [2] (setting [4]) was 24 h; in series [2] (setting [5]) it was 2 h.

Turning to `CC1=C[C@H](O/C=C2\Cc3c([nH]c4ccccc34)C2=O)N(C(=O)OC(C)(C)C)C1=O` (racemic) [rac-6], the half-life at 200 μg ml^–1 in series [2] (setting [4]) was 528 h; in series [2] (setting [5]), 190 h.

In the case of `CC1=C[C@H](Oc2ccc(Br)cc2)NC1=O` (racemic) [rac-7], in series [1], the “Fold lower potency than rac-GR24 (germination)” value is ~ 100 fold and the “Concentration at which high germination activity was shown” value stood at 10 µM. The half-life at 200 μg ml^–1 in series [2] (setting [4]) is 17 h. Also, the half-life at 200 μg ml^–1 in series [2] (setting [5]) is 11 h.

As for `CC1=C[C@H](Oc2ccc(Br)cc2)N(C(=O)OC(C)(C)C)C1=O` (racemic) [rac-8], the half-life at 200 μg ml^–1 in series [2] (setting [4]) was 1080 h; in series [2] (setting [5]), 230 h.

As to `CC1=C[C@H](O/C=C2/C(=O)O[C@@H]3c4ccccc4C[C@H]23)OC1=O` (racemic) [rac-GR24, reference compound], the “Concentration of maximum germination activity” value in series [1] (concentrations equal to or above) was at least 0.1 µM.

Consider `CC1=C[C@H](O/C=C2/C(=O)O[C@@H]3c4ccccc4C[C@H]23)OC1=O` [(+)-GR24], for which the “HILLSLOPE best-fit value (Table S1)” value in series [3] (setting [6]) is given as 0.4764. For the same compound, the “LOGIC50 best-fit value (Table S1)” value in series [3] (setting [6]) is listed as -5.791. The DC50 was 1620 nM in series [3] (read-out: EC50 (D14::LUC assay), 6 h after treatment, 0.01–100 μM, n=5) and 1620 nM in series [3] (read-out: EC50 best-fit value (Table S1), GraphPad fit, normalized with low acetone control). Besides, the half-life at 200 μg ml^–1 in series [2] (buffer, pH 6.7, Half-life (t1/2, h) 30% MeOH) was 80 h; in series [2] (buffer, pH 6.7, Half-life (t1/2, h) ACN:Water, 1:1), 3380 h.

In the case of `CC1=CC(O/C=C2/C(=O)c3c(c4cc(-c5scc6c5OCCO6)ccc4n3C)C2C)OC1=O` (centres unmarked) [EDOT], in series [3], the “Activity in the luciferase assay at 1 μM” value is “significant activity” and the “D14 degradation in the luciferase assay” value is on record as “induced high levels of D14 degradation”.

Turning to `CC1=CC(O/C=C2\Cc3c(n(C)c4ccccc34)C2=O)OC1=O` (centres unmarked) [EGO10], in series [3], the “Activity in the luciferase assay at 1 μM” value is recorded as “significant activity” and the “D14 degradation in the luciferase assay” value is “induced high levels of D14 degradation”.

Consider `CC1=CC(O/C=C2/C(=O)c3c(c4cc(-c5ccc(N(C)C)cc5)ccc4n3C)C2C)OC1=O` (centres unmarked) [ST23b], for which, in series [3], the “Activity in the luciferase assay at 1 μM” value is listed as “significant activity” and the “D14 degradation in the luciferase assay” value is “induced high levels of D14 degradation”.

As for `CC1=C[C@H](O/C=C2/C(=O)O[C@@H]3C4=C(C[C@H]23)[C@@H](O)CCC4(C)C)OC1=O` [strigol], in series [3], the “Activity in the luciferase assay at 1 μM” value is “significant activity” and the “D14 degradation in the luciferase assay” value is “induced high levels of D14 degradation”.
